From paper PMC9788182, “Natural Compounds as Non-Nucleoside Inhibitors of Zika Virus Polymerase through Integration of In Silico and In Vitro Approaches” (Pharmaceuticals, 2022)
Where two headings read alike, the source gives them in different places.

How the values were obtained:
Cell viability, MTT = format: cell-based; conditions: African green monkey, Vero cells
Procedure: Cell viability was measured by the MTT [3-(4,5-dimethylthiazol-2-yl)-2,5-diphenyl tetrazolium bromide] (Sigma–Aldrich) method. Vero cells were seeded in a 96-well plate at a density of 5 × 10^3 cells per well and incubated overnight at 37 °C in a humidified 5% CO2 incubator. A drug-containing medium at concentrations ranging from 200 to 0.005 µM was added to the cell culture. After 72 h at 37 °C, the media was removed and a solution containing MTT at the final concentration of 1 mg/mL was added to each well and incubated for 30 min at 37 °C in a humidified 5% CO2 incubator, after which media was replaced with 100 μL of DMSO to solubilize the formazan crystals. Absorbance was measured by the optical density (OD) of each well at 490 nm, using a spectrophotometer. Cell viability was calculated according to the equation (T/C) × 100%, where T and C represent the mean optical density of the treated group and vehicle control group, respectively. […] 8 [95].

ZIKV^BR = test: Antiviral assay, Vero cells infected with ZIKV^BR, foci by immunofluorescence; format: cell-based, Zika virus; conditions: for SI (selectivity index): SI = CC50/EC50, Vero cells; for EC50: Zika virus, read-out: EC50 ZIKV
Procedure: The anti-ZIKV activities of the pedalitin and quercetin were further investigated through the employment of Vero cells infected with ZIKV wild type (ZIKV^BR) (Figure 6). […] Vero cells were infected with ZIKV^BR and simultaneously treated with pedalitin or quercetin at concentrations ranging from 200 µM to 0.005 µM for 72 h when viral replication rates were assessed (Figure 6). Cell viability analysis was performed in parallel (Figure 6).
Vero cells were seeded at density of 5 × 10^3 cells per well into 96-well plates 24 h prior to the infection. ZIKV-WT^BR at a multiplicity of infection (MOI) of 0.1 and compound at concentrations ranging from 200 to 0.005 µM were simultaneously added to cells. 72 h post-infection (h.p.i.), cells were fixed with paraformaldehyde 4%, washed with PBS and blocking buffer (BB) containing: 0.1% Triton X-100 (Vetec Labs, PR, BR), 0.2% bovine albumin (BSA) and PBS for 30 min. Then, cells were incubated with primary rabbit polyclonal anti-NS3 antibody diluted in BB for 1 h. Alexa Fluor 488 conjugated anti-rabbit IgG was used as secondary antibody (Abcam, Cambridge, UK). Images were analyzed by EVO cell imaging systems fluorescence microscopy (Thermo Fisher Scientific, OH, USA) and foci of infection were counted. The antiviral activity was calculated according to the equation (T/C) × 100%, where T and C represent the mean of the treated group and mean of the […], respectively. […] 8. The values of CC50 and EC50 were used to calculate the selectivity index (SI = CC50/EC50).

ZIKV NS5 RdRp = ZIKV NS5 RdRp (Zika virus, UniProt Q32ZE1); test: ZIKV NS5-RdRp activity assays (endpoint and concentration-response); format: biochemical; conditions: for inhibition at 20 µM: endpoint assay at 20 µM, read-out: inhibitory activity against ZIKV RdRp
Procedure: Nine prioritized hits were submitted to endpoint assay at 20 µM to verify their inhibitory activity against ZIKV RdRp. […] Pedalitin and quercetin were the only ones with activity greater than 80%, with inhibitory activity of 97% and 99%, respectively, and consequently were selected for the concentration-response assays.
We then investigated ZIKV RdRp activity in the presence of pedalitin and quercetin.
ZIKV NS5-RdRp activity assays were performed as described by Fernandes and coworkers. The endpoint assays were performed at 20 μM, and the compounds that inhibited more than 80% of activity in this assay were submitted to a concentration-response test. The concentration-responses assays were performed as described in [94]. In all cases, the percentage inhibition values were calculated based on a control reaction, containing only DMSO in the same concentrations used for the tested compounds. The results were analyzed and plotted using the GraphPad Prism v. 8.0 program.

SARS-CoV-2 RdRp = test system: SARS-CoV-2 RdRp; set-up: method as in PMID 35732785; conditions: cited from earlier work
DENV-2 virus = test system: DENV-2 virus; set-up: method as in PMID 22201648; conditions: Vero cells, cited from earlier work
DENV RdRP = conditions: ref 31 (10), ref 21 (11), ref 30 (12); cited from earlier work
DENV4 RdRP = test system: DENV4 RdRP; set-up: method as in earlier work; conditions: ref 49 (13), ref 8 (14), ref 24 (15); cited from earlier work
DENV2 RdRP = test system: DENV2 RdRP; set-up: method as in earlier work; conditions: ref 49 (13), ref 8 (14), ref 24 (15); cited from earlier work
DENV3 RdRP = test system: DENV3 RdRP; set-up: method as in earlier work; conditions: ref 49 (13), ref 8 (14), ref 24 (15); cited from earlier work
DENV1 RdRP = test system: DENV1 RdRP; set-up: method as in earlier work; conditions: ref 49 (13), ref 8 (14), ref 24 (15); cited from earlier work
ZIKV RdRp [1] = test system: ZIKV RdRp; set-up: method as in PMID 31310806; conditions: cited from earlier work
ZIKV = test system: ZIKV; set-up: method as in PMID 30392049; conditions: Vero cells; cited from earlier work
[2] = test system: Japanese encephalitis virus (JEV); conditions: cited from earlier work
DENV-2 = test system: DENV-2; set-up: method as in PMID 34126315, PMID 24965553; conditions: read-out: DENV2 EC50; cited from earlier work
ZIKV RdRp [3] = test system: ZIKV RdRp; set-up: method as in PMID 28098253; conditions: cited from earlier work

Chain of ZIKV NS5 RdRp (Q32ZE1 2822-3419): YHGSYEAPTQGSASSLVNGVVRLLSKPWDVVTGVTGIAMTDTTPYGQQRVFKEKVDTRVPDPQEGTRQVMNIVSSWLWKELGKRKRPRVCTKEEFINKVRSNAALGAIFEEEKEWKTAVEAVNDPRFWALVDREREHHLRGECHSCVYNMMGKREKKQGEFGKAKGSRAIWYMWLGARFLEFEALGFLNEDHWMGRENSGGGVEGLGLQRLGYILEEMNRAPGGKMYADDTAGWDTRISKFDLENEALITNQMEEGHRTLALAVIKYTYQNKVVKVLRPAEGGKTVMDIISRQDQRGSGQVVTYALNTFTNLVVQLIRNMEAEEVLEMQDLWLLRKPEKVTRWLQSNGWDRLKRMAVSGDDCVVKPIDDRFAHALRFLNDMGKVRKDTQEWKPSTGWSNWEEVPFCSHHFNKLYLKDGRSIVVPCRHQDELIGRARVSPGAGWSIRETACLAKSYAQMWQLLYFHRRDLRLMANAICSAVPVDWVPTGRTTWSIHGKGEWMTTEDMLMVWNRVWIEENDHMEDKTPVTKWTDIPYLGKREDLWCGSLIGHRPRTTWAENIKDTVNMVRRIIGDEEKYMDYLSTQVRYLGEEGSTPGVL

## COc1cc2oc(-c3ccc(O)c(O)c3)cc(=O)c2c(O)c1O [Compound 8, Pedalitin]
Cell viability, MTT
  CC50 at 72 h: 83.7 µM
ZIKV^BR
  SI (selectivity index): 4.34
ZIKV^BR; Vero, 72 h
  EC50: 19.3 µM
ZIKV NS5 RdRp
  IC50: 4.1 ± 0.3 µM
  inhibition at 20 µM: 97%

## O=c1c(O)c(-c2ccc(O)c(O)c2)oc2cc(O)cc(O)c12 [Compound 9, Quercetin]
Cell viability, MTT
  CC50 at 72 h: 36 µM
SARS-CoV-2 RdRp
  IC50: 6.9 µM
ZIKV^BR
  SI (selectivity index): 2.03
ZIKV^BR; Vero cells, ZIKV^BR MOI 0.1, 72 h, 200 to 0.005 µM
  EC50: 17.7 µM
ZIKV NS5 RdRp; concentration-response, 80 µM to 0.156 µM, read-out: IC50 ZIKV RdRp
  IC50: 0.5 ± 0.1 µM
ZIKV NS5 RdRp
  inhibition at 20 µM: 99%
DENV-2 virus; administration after viral adsorption
  EC50: 95.6 µM
DENV-2 virus; concentration of 165.4 µM
  reduction of DENV-2 replication: 67%

## O=C(O)CCCC(/C=C/c1ccccc1)c1c(O)c(C(CCCC(=O)O)CCc2ccccc2)c(O)c2c(=O)cc(-c3ccccc3)oc12 (stereo not drawn) [Compound 11, chartaceone D]
DENV RdRP
  IC50: 1.8 ± 1.2 µM

## COc1cc(O)c2c(=O)c(O)c(-c3ccc(O)c(O)c3)oc2c1 [Compound 12, rhamnetin]
DENV RdRP
  IC50: 2.2 ± 0.2 µM

## O=C(Cc1ccccc1Nc1c(Cl)cccc1Cl)NC1(C(=O)O)Cc2ccccc2C1 [Compound 13, bis-chloro-diphenylamine, 2-aminoindan-2-carboxyl derivative]
DENV4 RdRP
  IC50: 6.1 ± 1 µM
DENV2 RdRP
  IC50: 16.5 ± 1.8 µM
DENV3 RdRP
  IC50: 12.8 ± 1.3 µM
DENV1 RdRP
  IC50: 6.6 ± 1.3 µM

## COc1cccc(S(=O)(=O)NC(=O)c2cc(-c3ccc(C#CCO)s3)c(OC)cc2OC)c1 [Compound 14, 5-(5-(3-Hydroxyprop-1-yn-1-yl)thiophen-2-yl)-2,4-dimethoxy-N-((3-methoxyphenyl)sulfonyl)benzamide]
DENV4 RdRP
  IC50: 0.172 ± 0.097 µM
DENV2 RdRP
  IC50: 0.106 µM
DENV3 RdRP
  IC50: 0.048 µM
DENV1 RdRP
  IC50: 0.068 µM

## COc1cc(C)c(C(=O)NS(=O)(=O)c2cccc3cccnc23)cc1-c1ccc(C#CCO)s1 [Compound 15, 5-(5-(3-Hydroxyprop-1-yn-1-yl)thiophen-2-yl)-4-methoxy-2-methyl-N-(quinolin-8-ylsulfonyl)benzamide]
DENV4 RdRP
  IC50: 0.023 ± 0.01 µM
DENV2 RdRP
  IC50: 0.038 µM
DENV3 RdRP
  IC50: 0.016 µM
DENV1 RdRP
  IC50: 0.013 µM

## C=CCCCCCCCCC(=O)O [Compound 17, undecylenic acid]
ZIKV RdRp [1]
  EC50: 7.43 µM

## O=c1cc(-c2ccccc2)oc2cc(O)c(O)c(O)c12 [Compound 18, baicalein]
ZIKV
  EC50: 0.004 µM
[2]; Figure 4
  JEV ED50: 27 µM
[2]
  EC50: 27 ± 4 µM
DENV-2
  EC50: 55.1 µM

## O=C(O)[C@H]1O[C@@H](Oc2cc3oc(-c4ccccc4)cc(=O)c3c(O)c2O)[C@H](O)[C@@H](O)[C@@H]1O [Compound 19, baicalin]
ZIKV
  EC50: 14 µM

## CC(C)OC(=O)[C@H](C)N[P@](=O)(OC[C@H]1O[C@@H](n2ccc(=O)[nH]c2=O)[C@](C)(F)[C@@H]1O)Oc1ccccc1 [Sofosbuvir, sofosbuvir]
ZIKV RdRp [3]
  IC50: 0.38 ± 0.03 µM

## O=c1cc(-c2ccc(O)c(O)c2)oc2cc(O)cc(O)c12 [luteolin]
SARS-CoV-2 RdRp
  IC50: 4.6 µM

## podocarpusflavone A [Compound 10]
DENV RdRP
  IC50: 0.16 ± 0.02 µM
